Reference: patent EP1598418A1, “STABILISED COMPOSITION FOR FLUORIMETRIC, COLORIMETRIC OR CHEMOLUMINESCENT ASSAYS, KITS CONTAINING SAME AND PRODUCTION METHOD THEREOF” (BIOTOOLS BIOTECHNOLOGICAL & MEDICAL LABORATORIES, S.A., priority 2003, dated 2004)

Columns and labels:
Conditions in all cases: conserved at T 4 °C, vs fresh mixture
[1] = test system: FRET probes; experiment: Real-time amplification with desiccated, stabilised reaction mixture with FRET probes after storage (Example 1); assay type: biochemical, P. falciparum
[2] = test system: TaqMan probes; experiment: Real-time amplification with desiccated, stabilised reaction mixture with TaqMan probes after storage (Example 2); assay type: biochemical, P. falciparum
[3] = test system: Molecular Beacon (MB) probe; experiment: Real-time amplification with desiccated, stabilised reaction mixture with Molecular Beacon probe after storage (Example 3); assay type: biochemical, P. falciparum
[4] = test system: Scorpion probes; experiment: Real-time amplification with desiccated, stabilised reaction mixture with Scorpion probes after storage (Example 4); assay type: biochemical, M. tuberculosis
[5] = test system: reaction mixture with SYBR Green; experiment: Real-time amplification with desiccated, stabilised reaction mixture with SYBR Green after storage (Example 5); assay type: biochemical, oncogenic papillomaviruses
Description: To test the efficiency of intercalated fluorophores such as SYBR Green included in desiccated and stabilised reaction mixtures, reaction mixtures were prepared for amplifying a 250 bp fragment corresponding to region E6-E7 of oncogenic papillomaviruses, using the same reagents as described in Example 1. In this case the unit "DNA Engine OPTICON™ 2 System" (MJ Research) was used. […] Also to each phial was added […] of SYBR Green 1 (Molecular probes).
Various tubes were prepared as described above, adding to each the suitable volume of each stabilising mixture shown in Table 1.
In parallel, in order to check the evolution of the activity of the desiccated tubes, DNA samples were amplified using a fresh mixture in the same amplification conditions.
The result of the amplification reaction was analysed in every case by inspecting the fluorescence curve and determining the crossing point, following the instructions of the equipment software, for each reaction tube both fresh and desiccated and stabilised. […] The samples of patients infected with oncogenic HPV gave positive results in every case, while patients infected with non-oncogenic HPV, or not infected with HPV, gave negative results in every case.

[6] = test system: DTCS Quick Start Master Mix; experiment: Sequencing reaction with desiccated, stabilised mixture with fluorescent terminators after storage (Example 6); assay type: biochemical, human papillomavirus
Description: To test the possibility of gelling reaction mixtures for sequencing nucleic acids the CEQ 200 Dye Terminator Cycle Sequencing (DTCS) Quick Start Kit (Beckman Coulter) was employed, which uses a PCR sequencing system in a single tube by incorporating four different fluorescent terminators. The sequencing reactions were later analysed in a CEQ 2000 XL DNA Analysis System (Beckman Coulter) capillary electrophoresis automatic sequencing system.
Reaction mixtures were prepared containing 4 microlitres of DTCS Quick Start Master Mix, 1 microlitre of universal primer M13-17 and the suitable volume of each stabilising mixture shown in Table 1.
In parallel, in order to check the evolution of the activity of the desiccated and stabilised tubes, the same plasmid was sequenced using a fresh sequencing mixture in standard conditions. Finally, the sequencing reactions were analysed in the CEQ 200XL system following the supplier's instructions.

[7] = test system: oligonucleotides chemically modified by including biotin and/or digoxygenin groups; experiment: Amplification with desiccated biotin/digoxygenin oligonucleotides and colorimetric ELISA plate assay (Example 7); assay type: biochemical, oncogenic HPV
Description: To do so, 4 oligonucleotides were designed that hybridised with the genome of region E6-E7 of oncogenic HPV species.
To do so, an ELISA microplate with a high-binding capacity to streptoavidin (Biospa) was activated following a standard fixing protocol. Then, after blocking the plate by incubation with gelatine, the amplified products of the stabilising mixtures 1, 2 and 3 described in Example 7.A were analysed by a colorimetry assay according to the following experimental process: • A.- Amplification products using an onligonucleotide marked with digoxygenin (mixture 1 in Example 7.A). The biotinated probe A11 was fixed to the plate and the amplified product was hybridised. […] The amplification product was fixed to the plate with the first biotinilate and then hybridised with the first A12 marked with digoxygenin.

[8] = test system: streptoavidin conjugated with HRP (Str-HRP) and anti-digoxygenin conjugated with alkaline phospatase (anti-DIG-AP); experiment: Colorimetric ELISA plate activity test of desiccated, stabilised conjugates (Example 8); assay type: biochemical, HPV 16
Description: In 0.2 ml amplification tubes were added 100 microlitres of a 1/250 dilution in a blocking solution of the conjugate Str-HRP (Biospa). In parallel, 0.2 ml phials were prepared in which 100 microlitres were added of a 1/250 dilution in a blocking solution of anti-DIG-AP (Sigma).
For the activity assay of the conjugate anti-DIG-AP an ELISA plate was used in which the dimples had been previously coated with streptoavidin. For the activity assay of conjugate Str-HRP a plate was used instead with dimples previously coated with anti-DIG antibodies. The amplified products were incubated in each plate to allow the immobilisation of the amplicons in the plate.

[9] = test system: antidigoxygenin antibody; experiment: Colorimetry assay of stabilised protein immobilised in ELISA microplates (Example 10.2); assay type: biochemical, HPV
Description: To do so each dimple was incubated with 1µg of antidigoxygenin antibody (Roche).
The amplified product was incubated for 30 minutes in the dimples with the antibody immobilised. The amplified products immobilised in the plate by the union of the digoxygenin group of the amplicons and the immobilised anti-digoxygenin group were analysed by a colorimetric assay. […] The colorimetric reaction was finally analysed by measuring absorption at 415 nm.

[10] = test system: nucleic acids immobilised in modified glasses; experiment: Colorimetric assay of stabilised nucleic acids immobilised in modified glasses (Example 10.3); assay type: biochemical, HPV 16
Description: Approach 1. Stabilisation of supports with previously fixed nucleic acids. HPV specific probes were fixed to glass supports pre-treated with polylysiun, aldehyde, epoxy, superepoxy and silane. To do so, in each support slide 1 microlitre spots were applied of the solution of each oligonucleotide at a concentration of 20 µM in the conditions indicated for each glass format. The slides with the immobilised oligonucleotides were then coated with a thin layer of each of the stabilising mixtures and then desiccated in a vacuum oven at 25°C and 50 mbar pressure.
(§1) Approach 2. Fixation to the slides of the nucleic acids pre-mixed with the stabilising mixtures. A mixture was prepared of each of the probes with the suitable volumes of the stabilising mixtures described in Table 1. Then the mixtures of oligonucleotides were applied to the various slides with the fixing conditions indicated for each glass format.
To test the viability of each slide prepared, a colorimetric assay was performed with formation of precipitate products. To do so, the slides were washed for 5 minutes in PBS 1X at room temperature to eliminate the protective layer. Then the slides were incubated in the presence of an amplified and previously denatured HPV 16 product using the probes A11 and A12.

[11] = test system: Anti-digoxygenin antibodies; experiment: Colorimetric assay of stabilised proteins immobilised in modified glasses (Example 10.4); assay type: biochemical, P. falciparum
Description: To test the possibility of stabilising proteins that have been previously immobilised in pre-treated glass supports, the usual format of microarray systems, two different alternatives were tested as in the previous experiment.
Approach 1. Stabilisation of supports with previously fixed protein. Anti-digoxygenin antibodies were fixed to glass supports pre-treated with aldehyde. To do so, in each support slide 1 microlitre spots were applied of the solution of each protein at a concentration of 30 ng/µl. The slides with the immobilised protein were then coated with a thin layer of each of the stabilising mixtures and then desiccated in a vacuum oven at 25°C and 50 mbar pressure.
as §1, with “protein” for “nucleic acids”, “protein” for “oligonucleotides”
To test the viability of each slide prepared, a colorimetric assay was performed with formation of precipitate products. To do so, the slides were washed for 5 minutes in PBS 1X at room temperature to eliminate the protective layer.

[12] = test system: probes marked with biotin or digoxygenin groups; experiment: Synthesis of digoxygenin-marked probes with desiccated mixtures and molecular hybridisation test (Example 9)
[13] = test system: nucleic acids immobilised in ELISA microplates; experiment: Amplification and colorimetric detection with stabilised nucleic acids immobilised in ELISA microplates (Example 10.1)

| Structure (SMILES) | activity of stabilising mixtures [1] | activity of stabilising mixtures [2] | activity of stabilising mixtures [3] | activity of stabilising mixtures [4] | activity of stabilising mixtures [5] | activity of stabilising mixtures [6] | activity of stabilising mixtures [7] | activity of stabilising mixtures [8] | activity of stabilising mixtures [9] | activity of stabilising mixtures [10] | activity of stabilising mixtures [11] | activity of stabilising mixtures [12] | activity of stabilising mixtures [13] |
| --- | --- | --- | --- | --- | --- | --- | --- | --- | --- | --- | --- | --- | --- |
| NCCCC[C@H](N)C(=O)O [Lysine] | + (+, weak positive, under 50% of the activity of the fresh mixture) | + (+, weak positive, under 50% of the activity of the fresh mixture) | + (+, weak positive, under 50% of the activity of the fresh mixture) | + (+, weak positive, under 50% of the activity of the fresh mixture) | + (+, weak positive, under 50% of the activity of the fresh mixture) | + (+, weak positive, under 50% of the activity of the fresh mixture) | + (+, weak positive, under 50% of the activity of the fresh mixture) | + (+, weak positive, under 50% of the activity of the fresh mixture) | + (+, weak positive, under 50% of the activity of the fresh mixture) | + (+, weak positive, under 50% of the activity of the fresh mixture) | + (+, weak positive, under 50% of the activity of the fresh mixture) | + (+, weak positive, under 50% of the activity of the fresh mixture) | + (+, weak positive, under 50% of the activity of the fresh mixture) |
| OC[C@H]1O[C@@](CO)(O[C@H]2O[C@H](CO)[C@@H](O)[C@H](O)[C@H]2O)[C@@H](O[C@H]2O[C@H](CO)[C@@H](O)[C@H](O)[C@H]2O)[C@@H]1O [Melezitose] | + (+, weak positive, under 50% of the activity of the fresh mixture) | + (+, weak positive, under 50% of the activity of the fresh mixture) | + (+, weak positive, under 50% of the activity of the fresh mixture) | + (+, weak positive, under 50% of the activity of the fresh mixture) | + (+, weak positive, under 50% of the activity of the fresh mixture) | + (+, weak positive, under 50% of the activity of the fresh mixture) | + (+, weak positive, under 50% of the activity of the fresh mixture) | + (+, weak positive, under 50% of the activity of the fresh mixture) | + (+, weak positive, under 50% of the activity of the fresh mixture) | + (+, weak positive, under 50% of the activity of the fresh mixture) | + (+, weak positive, under 50% of the activity of the fresh mixture) | + (+, weak positive, under 50% of the activity of the fresh mixture) | + (+, weak positive, under 50% of the activity of the fresh mixture) |
| OC[C@H]1O[C@H](OC[C@H]2O[C@H](O[C@]3(CO)O[C@H](CO)[C@@H](O)[C@@H]3O)[C@H](O)[C@@H](O)[C@@H]2O)[C@H](O)[C@@H](O)[C@H]1O [Rafinose] | + (+, weak positive, under 50% of the activity of the fresh mixture) | + (+, weak positive, under 50% of the activity of the fresh mixture) | + (+, weak positive, under 50% of the activity of the fresh mixture) | + (+, weak positive, under 50% of the activity of the fresh mixture) | + (+, weak positive, under 50% of the activity of the fresh mixture) | + (+, weak positive, under 50% of the activity of the fresh mixture) | + (+, weak positive, under 50% of the activity of the fresh mixture) | + (+, weak positive, under 50% of the activity of the fresh mixture) | + (+, weak positive, under 50% of the activity of the fresh mixture) | + (+, weak positive, under 50% of the activity of the fresh mixture) | + (+, weak positive, under 50% of the activity of the fresh mixture) | + (+, weak positive, under 50% of the activity of the fresh mixture) | + (+, weak positive, under 50% of the activity of the fresh mixture) |
| OC[C@H]1O[C@@](CO)(O[C@H]2O[C@H](CO)[C@@H](O)[C@H](O)[C@H]2O)[C@@H](O)[C@@H]1O [Sucrose] | + (+, weak positive, under 50% of the activity of the fresh mixture) | + (+, weak positive, under 50% of the activity of the fresh mixture) | + (+, weak positive, under 50% of the activity of the fresh mixture) | + (+, weak positive, under 50% of the activity of the fresh mixture) | + (+, weak positive, under 50% of the activity of the fresh mixture) | + (+, weak positive, under 50% of the activity of the fresh mixture) | + (+, weak positive, under 50% of the activity of the fresh mixture) | + (+, weak positive, under 50% of the activity of the fresh mixture) | + (+, weak positive, under 50% of the activity of the fresh mixture) | + (+, weak positive, under 50% of the activity of the fresh mixture) | + (+, weak positive, under 50% of the activity of the fresh mixture) | + (+, weak positive, under 50% of the activity of the fresh mixture) | + (+, weak positive, under 50% of the activity of the fresh mixture) |
